Data published in patent US20090232786A1, “HERBAL COMPOSITION FOR CANCER TREATMENT” (priority 2001, published 2009).

Assays:
[1] = tested on: serum PSA; experiment: Patient case studies: serum PSA; assay type: in vivo, human; conditions: Example 11; Casodex 50 mg once daily for three months; PSA before 41
Description: Serum PSA was measured to be 300. This patient then started hormone therapy including an oral administration of 100 mg of Androcur (Cyproterone Acetate) 3 times per day, and a subcutaneous injection of 3.6 mg of Zolodex (Goserelin Acetate Implant) once per three months. The prostate has been monitored since with serum PSA levels, varying between “28-62”.
In May 2001, the PSA level was measured to be 41. At that time, the patient stopped taking Androcur and Zolodex, and started to take Casodex 50 mg once daily. The treatment with Casodex continued for three months and follow-up blood tests indicated a serum PSA of 5.7.
From August 2001, this patient started to combine Casodex with an oral administration of the herbal formula of the present invention. The intake dosage of the herbal formula was 2070 mg per day. This combination treatment continued for two months.
From October 2001, the dosage of this herb formula was increased to 2760 mg per day. Following PSA level measurement was 2.3 in November 2001.
The patient in this case study was a person. […] The PSA was measured to be 21.
The prostate has been monitored approximately every 6 months. As the PSA reading was between “13-17” on occasions, when readings were high, antibiotics were prescribed for prostatitis. The PSA was measured to be 18.7 at August of 2001. […]

[2] = tested on: Prostaglandin E2 (PGE2) production in a mouse 3T3 fibroblast cell line; experiment: Anti-inflammatory assay: secreted PGE2 from stimulated 3T3 fibroblasts; assay type: cell-based; conditions: 3T3 cells, 500 μM, dilution 500
From the text: This assay was run to determine the effectiveness of the herbal formula to inhibit Prostaglandin E2 (PGE2) production in a mouse 3T3 fibroblast cell line.
The anti-inflammatory assay measures the level of PGE2 in stimulated mouse fibroblast 3T3 cell line after treatment with the herbal formula. The use of a stimulated cell line rather than using isolated enzyme systems gives more useful data.
PGE2 is formed in a variety of cells from PGH2, which itself is synthesized from arachiodonic acid by the enzyme prostaglandin synthetase. The assay measures secreted levels of PGE2 from the supernatant of the fibroblast cells.

[3] = target: T1, estrogen (E2) binding site on MCF-7 cell lines (Homo sapiens, UniProt P03372); experiment: Estrogen binding assay, 3H 17-β-estradiol displacement; conditions: MCF-7, 197 μM, 1 nM 3H E2, 3 hours
T1 construct: endogenous in cells; host or cells: MCF-7 breast cancer cells
T1 sequence (P03372 1-595): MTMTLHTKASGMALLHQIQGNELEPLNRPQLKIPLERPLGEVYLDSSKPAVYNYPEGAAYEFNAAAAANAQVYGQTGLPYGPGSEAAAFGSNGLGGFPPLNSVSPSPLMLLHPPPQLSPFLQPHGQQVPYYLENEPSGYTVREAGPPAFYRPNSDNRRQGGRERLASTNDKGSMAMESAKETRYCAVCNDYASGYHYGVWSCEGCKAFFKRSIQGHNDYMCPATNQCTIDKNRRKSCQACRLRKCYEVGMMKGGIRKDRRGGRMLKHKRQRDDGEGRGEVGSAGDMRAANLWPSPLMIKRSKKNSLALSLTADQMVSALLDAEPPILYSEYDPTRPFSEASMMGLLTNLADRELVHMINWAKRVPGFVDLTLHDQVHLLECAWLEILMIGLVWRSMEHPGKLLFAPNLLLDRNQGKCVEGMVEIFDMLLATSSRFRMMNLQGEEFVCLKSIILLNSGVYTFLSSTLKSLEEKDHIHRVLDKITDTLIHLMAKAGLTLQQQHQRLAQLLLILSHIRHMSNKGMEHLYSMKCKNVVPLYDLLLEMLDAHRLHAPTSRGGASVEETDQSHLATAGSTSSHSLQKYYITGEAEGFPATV
Description: The estrogen binding capacity of the herbal formula was investigated by assay. This assay was developed and run to determine if the herbal extracts that constitute the herbal formula have any binding activity towards the estrogen (E2) binding site on MCF-7 cell lines. The MCF-7 is a breast cancer cell line and was chosen because of the ability to express E2 binding sites.
^3H 17-β-estradiol (E2) was used at a final concentration in the wells of 1 nM in media. Samples were incubated for 3 hours after which the wells were aspirated and washed 3 times with warm PBS. Cell bound radioactivity was extracted with 300 μL EtOH which was added to each well and left to lyse for 20 min at room temperature. An aliquot was removed for counting, transferred to a counting plate and scintillant added and the plate counted in a Perkin Elmer MicroBeta.

[4] = tested on: PC-3 cell lines; experiment: PC3 cell cycle analysis by flow cytometry of propidium iodide stained cells; assay type: cell-based; conditions: PC-3, paclitaxol 10 ng/mL (FIG. 3)
Description: Cell cycle analysis was carried out using tablets/capsules of the present invention. The formulation was tested as a single tablet/capsule concentration in triplicate and as a two capsule concentration also in triplicate.
Tablets/capsules were weighed, crushed and extracted with 10 ml of methanol. The extracts were sonicated for 40 mins and then spun down at 4000 rpm. The supernatant was removed and 100 μL of this extract was used in the cell cycle analysis. A further aliquot of this extract was subjected to HPLC-MS analysis as described in Example 3 below. Cells were split into 16×25 cm^2 flasks at a low concentration and allowed to grow to 65-70% confluence (at the time of addition the cells were in log phase). Flasks were incubated for 24 hours and control flasks of control media (no additions), an ethanol (100 μL EtOH), a control methanol (100 μL MeOH) and paclitaxol (10 μL of 0.01 mg/mL=10 ng/mL) were also run.
Flow cytometry was performed on the fixed cells after washing in PBS and stained using propidium iodide (2% PI in 0.1% Triton X-100 containing 2 mg/mL Rnase A). A Becton Dickson FACSCaliber was used to assay the cells.

[5] = tested on: LNCap cell lines; experiment: LNCap cell cycle assay; assay type: cell-based; conditions: positive control (FIG. 7)
Description: A anti-cancer activity assay was conducted with the results presented in Table 3 wherein the herb formula represents a combination according to the present invention. LNCap is an androgen-dependent prostate cancer cell line.

[6] = tested on: HL60 cell lines; experiment: HL60 cell cycle assay; assay type: cell-based, human; conditions: HL60, positive control (FIG. 10)
Description: The bioactivity of the herb formula was assessed using HL60 cell lines. HL60 is a human promyelocytic leukemia cell line.

CC(O)(CS(=O)(=O)c1ccc(F)cc1)C(=O)Nc1ccc(C#N)c(C(F)(F)F)c1 (centres unmarked) [Casodex]
serum PSA [1]: 5.7

CC(=O)Oc1ccccc1C(=O)O [Aspirin]
% Control (secreted PGE2) [2]: 14.2%

O=c1c(-c2ccc(O)cc2)coc2cc(O)ccc12 [diadzein]
displacement of 3H E2 from the E2 receptor [3]: > 60%

CC(=O)O[C@H]1C(=O)[C@@]2(C)[C@H]([C@H](OC(=O)c3ccccc3)[C@]3(O)C[C@H](OC(=O)[C@H](O)[C@@H](NC(=O)c4ccccc4)c4ccccc4)C(C)=C1C3(C)C)[C@]1(OC(C)=O)CO[C@@H]1C[C@@H]2O [Paclitaxol]
cells in the G0-G1 phase [4]: 1.16% | cells in the G2-M phase [4]: 71.89% | cells in the S phase [4]: 26.95% | effect on the cell cycle [5]: arresting of cells in G2-M | effect on the cell cycle [6]: arrest the cells in the G2-M stage
